Assay results taken from US8901125B2, “Substituted bicyclic alkoxy pyrazole analogs as allosteric modulators of mGluR5 receptors” (Vanderbilt University, priority 2012, dated 2014).

Key:
[1] = system: amphetamine-induced hyperlocomotion; test: Reversal of amphetamine-induced hyperlocomotion in rats; format: in vivo, male Sprague-Dawley rats; conditions: 10 mg/kg p.o.; amphetamine 1 mg/kg s.c.; intervals 13-24; rat
Method: The study was carried out using male Sprague-Dawley rats weighing 225 g-275 g, between 2-3 months old (Harlan, Inc., Indianapolis, Ind.). They were kept in the animal care facility certified by the American Association for the Accreditation of Laboratory Animal Care (AALAC) under a 12-hour light/dark cycle (lights on: 6 a.m.; lights off: 6 p.m.) and had free access to food and water. The experimental protocols performed during the light cycle were approved by the Institutional Animals Care and Use Committee of Vanderbilt University and conformed to the guidelines established by the National Research Council Guide for the Care and Use of Laboratory Animals
Locomotor activity was assessed as mean distance traveled (cm) in Smart Open Field locomotor activity test chambers (Hamilton-Kinder, San Diego, Calif.) with 16×16 photobeams with chambers measuring 43.2 cm (Length)×43.2 cm (Width)×30.5 cm (Height) (Med Associates, St. Albans, Vt.). The animals were habituated for 30 min and then dosed with vehicle or test compound. The rats were then placed into cages. At 60 min, all rats were injected subcutaneously with 1 mg/kg amphetamine or vehicle and then monitored for an additional 60 min. Animals are monitored for a total of 120 minutes.
Data are expressed as the mean (±SEM) distance traveled recorded in 5 min intervals over the test period. The data was analyzed using repeated measures analysis of variance (ANOVA) followed by post-hoc testing using Dunnett's test, when appropriate. A difference was considered significant when p≦0.05. The data for the dose-response studies were analyzed by a between-group analysis of variance. If there was a main effect of dose, then each dose group was compared with the vehicle amphetamine group. The calculations were performed using JMP IN 8 (SAS Institute, Cary, N.C.) statistical software and graphed using SigmaPlot9 (Saugua, Mass.).
Amphetamine sulfate was obtained from Sigma (Cat#A5880-1G; St. Louis, Mo.) and 10 mg was dissolved in 10 ml of water. […]

human mGluR5a receptor = human mGluR5a receptor (Homo sapiens, UniProt P41594); test: Cell-based functional assay (Ca2+ mobilization, FDSS), potentiation of glutamate EC20 response; conditions: H10H cell line; for Emax: maximum % effect in the concentration-response curve as percent of maximal glutamate response, glutamate EC20; for EC50: potentiation in presence of glutamate EC20, concentration in mol/L
Source text: Human mGluR5a cDNA in pCMV6-XL6 mammalian expression plasmid was purchased from OriGene Technologies, Inc. (catalogue number SC326357) and subcloned into pcDNA3.1(−). Human embryonic kidney (HEK)293A cells were then transfected with human mGluR5a pcDNA3.1(−) using LipofectAmine-2000 (Invitrogen) and monoclones were selected and tested for functional response using a Ca^2+ mobilization assay. Monoclones were named for the species (“H” for human) plus the location on the plate (e.g. “10H”).
HEK cells transfected with the human mGluR5a receptor (H10H or H12H cell line) were plated at 15,000 cells/well in clear-bottomed poly-D-lysinecoated assay plates (BD Falcon) in glutamate-glutamine-free growth medium and incubated overnight at 37° C. and 5% CO2. Cell-lines used were either the H10H or H12H cell-lines expressing the human mGluR5 receptor. The following day, the growth medium was removed and the cells were washed with assay buffer containing 1× Hank's balanced salt solution (Invitrogen, Carlsbad, Calif.), 20 mM HEPES, 2.5 mM probenecid, pH 7.4 and left with 20 μL of this reagent. Following this step, the cells were loaded with calcium indicator dye, fluo-4 AM, to a final concentration of 2 μM and incubated for 40-45 min at 37° C. The dye solution was removed and replaced with assay buffer. Cell plates were held for 10-15 min at room temperature and were then loaded into the Functional Drug Screening System 6000 (FDSS 6000, Hamamatsu, Japan).
After establishment of a fluorescence baseline for about 3 seconds, the compounds of the present invention were added to the cells, and the response in cells was measured. 2.3 minutes later an EC20 concentration of the mGluR5 receptor agonist glutamate was added to the cells, and the response of the cells was measured for about 1.7 minutes. All test compounds were dissolved and diluted to a concentration of 10 mM in 100% DMSO and then serially diluted into assay buffer for a 2× stock solution in 0.6% DMSO; stock compounds were then added to the assay for a final DMSO concentration of 0.3% after the first addition to the assay well. Calcium fluorescence measures were recorded as fold over basal fluorescence; raw data was then normalized to the maximal response to glutamate. Potentiation of the agonist response of the mGluR5 receptor in the present invention was observed as an increase in response to submaximal concentrations of glutamate in the presence of compound compared to the response to glutamate in the absence of compound.
The concentration-response curves of compounds of the present invention, obtained in the presence of EC20 of mGluR5 receptor agonist glutamate to determine positive allosteric modulation, were generated using Microsoft Excel with IDBS XLFit add-ins. The raw data file containing all time points was used as the data source in the analysis template. This was saved by the FDSS as a tab-delimited text file. Data were normalized using a static ratio function (F/F0) for each measurement of the total 350 values per well divided by each well's initial value. Data was then reduced as to peak amplitudes (Max Initial Min) using a time range that starts approximately 1 second after the glutamate EC20 addition and continues for approximately 40 seconds. This is sufficient time to capture the peak amplitude of the cellular Calcium response. Individual amplitudes were expressed as % EMax by multiplying each amplitude by 100 and then dividing the product by the mean of the amplitudes derived from the glutamate ECMax-treated wells. pEC50 values for test compounds were generated by fitting the normalized values versus the log of the test compound concentration (in mol/L) using a 4 parameter logistic equation where none of the parameters were fixed. Each of the three values collected at each concentration of test compound were weighted evenly. Individual values falling outside the 95% prediction limits of the curve fit were automatically excluded from the fit. […]

Chain of human mGluR5a receptor (P41594 21-1180 isoform P41594-2 limits assumed): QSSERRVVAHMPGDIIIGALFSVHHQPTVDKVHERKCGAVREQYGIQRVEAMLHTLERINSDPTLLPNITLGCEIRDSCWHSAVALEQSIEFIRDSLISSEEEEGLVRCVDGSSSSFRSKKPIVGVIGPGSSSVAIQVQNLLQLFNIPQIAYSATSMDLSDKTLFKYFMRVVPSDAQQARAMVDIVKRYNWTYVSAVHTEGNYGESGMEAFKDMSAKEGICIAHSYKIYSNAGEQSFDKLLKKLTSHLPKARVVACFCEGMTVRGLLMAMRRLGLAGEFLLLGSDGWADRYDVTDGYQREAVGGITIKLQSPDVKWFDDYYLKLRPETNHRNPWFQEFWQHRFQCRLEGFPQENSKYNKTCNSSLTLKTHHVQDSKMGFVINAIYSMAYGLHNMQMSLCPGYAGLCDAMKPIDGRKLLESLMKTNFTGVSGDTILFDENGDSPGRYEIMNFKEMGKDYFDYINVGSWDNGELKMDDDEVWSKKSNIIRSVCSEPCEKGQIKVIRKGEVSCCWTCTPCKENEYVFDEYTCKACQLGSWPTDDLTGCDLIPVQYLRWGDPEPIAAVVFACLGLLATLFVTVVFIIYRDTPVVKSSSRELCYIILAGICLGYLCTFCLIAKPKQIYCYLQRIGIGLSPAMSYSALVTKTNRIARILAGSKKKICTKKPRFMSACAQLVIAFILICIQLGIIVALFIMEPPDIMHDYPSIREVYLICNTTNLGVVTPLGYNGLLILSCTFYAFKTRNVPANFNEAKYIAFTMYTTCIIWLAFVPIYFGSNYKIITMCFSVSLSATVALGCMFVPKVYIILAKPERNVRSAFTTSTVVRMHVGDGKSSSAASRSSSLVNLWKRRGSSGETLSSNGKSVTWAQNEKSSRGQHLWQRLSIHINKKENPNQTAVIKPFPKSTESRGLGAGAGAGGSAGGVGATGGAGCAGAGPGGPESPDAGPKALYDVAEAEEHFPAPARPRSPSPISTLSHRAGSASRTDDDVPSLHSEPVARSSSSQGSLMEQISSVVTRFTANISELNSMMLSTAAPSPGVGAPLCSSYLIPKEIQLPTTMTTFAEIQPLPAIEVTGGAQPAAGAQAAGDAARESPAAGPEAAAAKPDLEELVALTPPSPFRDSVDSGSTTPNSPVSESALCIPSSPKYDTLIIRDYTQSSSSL

Row | Emax (human mGluR5a receptor) | EC50 (human mGluR5a receptor) | melting point | SMILES | % Reversal of amphetamine-induced hyperlocomotion [1]
1 | 45% | 0.0955 µM | 116.4 °C | O=C1c2cc(OCc3cccc(F)c3)nn2CCN1c1ccc(F)cc1 [Example B26, 2-((3-fluorobenzyl)oxy)-5-(4-fluorophenyl)-6,7-dihydropyrazolo[1,5-a]pyrazin-4(5H)-one] | 25%
2 | 47% | 0.871 µM | 182.8 °C | Cc1nccc(N2CCn3nc(OCc4ccccc4)cc3C2=O)n1 [Example B19] | 
3 | 55% | 0.123 µM | 167.1 °C | Cc1nc(N2CCn3nc(OCc4ccccc4)cc3C2=O)ccc1F [Example B17, 2-(benzyloxy)-5-(5-fluoro-6-methylpyridin-2-yl)-6,7-dihydropyrazolo[1,5-a]pyrazin-4(5H)-one] | 14%
4 | 17% | > 30.2 µM | 147.8 °C | O=C1c2cc(OCc3ccccc3)nn2CCN1c1cccnc1 [Example B12] | 

Second part, the molecule before the results:

Row | SMILES | Emax (human mGluR5a receptor) | EC50 (human mGluR5a receptor) | melting point | % Reversal of amphetamine-induced hyperlocomotion [1]
5 | CN(C)c1cccc(N2CCn3nc(OCc4ccccc4)cc3C2=O)n1 [Example B15, 2-(benzyloxy)-5-(6-(dimethylamino)pyridin-2-yl)-6,7-dihydropyrazolo[1,5-a]pyrazin-4(5H)-one] | 61% | 0.0257 µM | 115.3 °C | 32%
6 | COc1nccc(N2CCn3nc(OCc4ccccc4)cc3C2=O)n1 [Example B2, 2-(benzyloxy)-5-(2-methoxypyrimidin-4-yl)-6,7-dihydropyrazolo[1,5-a]pyrazin-4(5H)-one] | 57% | 0.661 µM | 160.6 °C | 
7 | O=C1c2cc(OCc3ccccc3)nn2CCN1c1cccc(F)c1 [Example B5] | 44% | 0.115 µM | 131.5 °C | 
8 | COc1cccc(COc2cc3n(n2)CCN(c2ccc(F)cc2)C3=O)c1 [Example B33] | 18% | > 30.2 µM | 105.1 °C | 
9 | CC1CN(c2ccc(F)cc2)C(=O)c2cc(OCc3ccccc3)nn21 (single isomer, unassigned) [Example B10] | 53% | 0.174 µM | 134.8 °C | 
10 | COc1cccc(F)c1CN1CCn2nc(OCc3ccccc3)cc2C1=O [Example B70] | 52% | 0.427 µM | 162.2 °C | 
11 | O=C1c2cc(OCc3ccccc3)nn2CCCN1CC1CC1 [Example B53, 2-(benzyloxy)-5-(cyclopropylmethyl)-5,6,7,8-tetrahydro-4H-pyrazolo[1,5-a][1,4]diazepin-4-one] | 23% | 1.32 µM | 68.1 to 68.4 °C | 
